These results are taken from ChEMBL document CHEMBL5465560, “Selectivity Literature for EUbOPEN Chemogenomic Library” (2024).

Assay [1] addresses Receptor-interacting serine/threonine-protein kinase 2 (Homo sapiens, UniProt O43353). Put plainly: Selectivity interaction (KinomeScan (DiscoverX)) EUB0000666a RIPK2. To be noted: at 10 µM.
For assay [2], the target named is Serine/threonine-protein kinase B-raf (Homo sapiens) (UniProt P15056). The assay is described as follows: Selectivity interaction (SelectScreen profiling (Invitrogen)) EUB0000607a BRAF. To be noted: at 2 µM.
Assay [3] has as its target T1, Serine/threonine-protein kinase tousled-like 1 (Homo sapiens) (UniProt Q9UKI8).
T1 sequence (whole entry): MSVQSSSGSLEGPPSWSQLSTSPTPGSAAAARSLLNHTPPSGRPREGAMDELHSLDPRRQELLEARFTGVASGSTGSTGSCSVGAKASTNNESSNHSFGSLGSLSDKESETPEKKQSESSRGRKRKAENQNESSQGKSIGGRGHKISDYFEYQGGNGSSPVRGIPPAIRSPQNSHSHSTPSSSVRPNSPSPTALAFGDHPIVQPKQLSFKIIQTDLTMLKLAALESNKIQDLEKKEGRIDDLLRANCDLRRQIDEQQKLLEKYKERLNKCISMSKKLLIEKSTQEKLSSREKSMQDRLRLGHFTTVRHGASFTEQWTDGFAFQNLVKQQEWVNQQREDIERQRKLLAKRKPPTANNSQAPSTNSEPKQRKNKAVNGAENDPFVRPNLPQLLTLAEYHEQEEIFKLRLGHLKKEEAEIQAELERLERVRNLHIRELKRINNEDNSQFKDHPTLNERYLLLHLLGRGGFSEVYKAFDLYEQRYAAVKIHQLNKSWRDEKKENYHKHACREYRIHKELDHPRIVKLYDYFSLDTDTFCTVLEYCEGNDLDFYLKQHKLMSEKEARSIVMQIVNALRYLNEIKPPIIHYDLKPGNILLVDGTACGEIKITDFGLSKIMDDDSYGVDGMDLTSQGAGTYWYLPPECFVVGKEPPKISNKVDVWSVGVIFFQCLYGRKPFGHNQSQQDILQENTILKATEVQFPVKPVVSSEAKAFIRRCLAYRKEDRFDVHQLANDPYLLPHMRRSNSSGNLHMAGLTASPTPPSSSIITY
The assay is described as follows: Selectivity interaction (ActivX KiNativ screen (kinase selectivity in THP-1 cell lysates)) EUB0000639a TLK1. The format is subcellular. To be noted: lysate, at 0.01 µM.

Assay [4] deals with T2, Dual specificity mitogen-activated protein kinase kinase 3 (Homo sapiens) (UniProt P46734).
T2 sequence (whole entry): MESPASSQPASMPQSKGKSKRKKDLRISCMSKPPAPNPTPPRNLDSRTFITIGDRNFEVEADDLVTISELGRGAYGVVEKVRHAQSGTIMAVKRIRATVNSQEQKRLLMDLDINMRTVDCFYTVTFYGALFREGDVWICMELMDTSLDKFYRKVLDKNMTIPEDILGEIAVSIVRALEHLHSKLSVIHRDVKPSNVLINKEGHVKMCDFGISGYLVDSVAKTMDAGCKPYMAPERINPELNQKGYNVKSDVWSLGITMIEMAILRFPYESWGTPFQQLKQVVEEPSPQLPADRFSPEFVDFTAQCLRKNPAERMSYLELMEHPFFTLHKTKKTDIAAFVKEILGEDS
The assay is described as follows: Selectivity interaction (ActivX KiNativ screen (kinase selectivity in THP-1 cell lysates)) EUB0000639a MAP2K3. In kind it is subcellular. To be noted: lysate.

In assay [5] the target is Activin receptor type-2A (Homo sapiens) (UniProt P27037). Put plainly: Selectivity interaction (KinomeScan (DiscoverX)) EUB0000655a ACVR2A. To be noted: at 10 µM.
Assay [6] has as its target T3, Histone-lysine N-methyltransferase EHMT1 (Homo sapiens) (UniProt Q9H9B1).
T3 sequence (whole entry): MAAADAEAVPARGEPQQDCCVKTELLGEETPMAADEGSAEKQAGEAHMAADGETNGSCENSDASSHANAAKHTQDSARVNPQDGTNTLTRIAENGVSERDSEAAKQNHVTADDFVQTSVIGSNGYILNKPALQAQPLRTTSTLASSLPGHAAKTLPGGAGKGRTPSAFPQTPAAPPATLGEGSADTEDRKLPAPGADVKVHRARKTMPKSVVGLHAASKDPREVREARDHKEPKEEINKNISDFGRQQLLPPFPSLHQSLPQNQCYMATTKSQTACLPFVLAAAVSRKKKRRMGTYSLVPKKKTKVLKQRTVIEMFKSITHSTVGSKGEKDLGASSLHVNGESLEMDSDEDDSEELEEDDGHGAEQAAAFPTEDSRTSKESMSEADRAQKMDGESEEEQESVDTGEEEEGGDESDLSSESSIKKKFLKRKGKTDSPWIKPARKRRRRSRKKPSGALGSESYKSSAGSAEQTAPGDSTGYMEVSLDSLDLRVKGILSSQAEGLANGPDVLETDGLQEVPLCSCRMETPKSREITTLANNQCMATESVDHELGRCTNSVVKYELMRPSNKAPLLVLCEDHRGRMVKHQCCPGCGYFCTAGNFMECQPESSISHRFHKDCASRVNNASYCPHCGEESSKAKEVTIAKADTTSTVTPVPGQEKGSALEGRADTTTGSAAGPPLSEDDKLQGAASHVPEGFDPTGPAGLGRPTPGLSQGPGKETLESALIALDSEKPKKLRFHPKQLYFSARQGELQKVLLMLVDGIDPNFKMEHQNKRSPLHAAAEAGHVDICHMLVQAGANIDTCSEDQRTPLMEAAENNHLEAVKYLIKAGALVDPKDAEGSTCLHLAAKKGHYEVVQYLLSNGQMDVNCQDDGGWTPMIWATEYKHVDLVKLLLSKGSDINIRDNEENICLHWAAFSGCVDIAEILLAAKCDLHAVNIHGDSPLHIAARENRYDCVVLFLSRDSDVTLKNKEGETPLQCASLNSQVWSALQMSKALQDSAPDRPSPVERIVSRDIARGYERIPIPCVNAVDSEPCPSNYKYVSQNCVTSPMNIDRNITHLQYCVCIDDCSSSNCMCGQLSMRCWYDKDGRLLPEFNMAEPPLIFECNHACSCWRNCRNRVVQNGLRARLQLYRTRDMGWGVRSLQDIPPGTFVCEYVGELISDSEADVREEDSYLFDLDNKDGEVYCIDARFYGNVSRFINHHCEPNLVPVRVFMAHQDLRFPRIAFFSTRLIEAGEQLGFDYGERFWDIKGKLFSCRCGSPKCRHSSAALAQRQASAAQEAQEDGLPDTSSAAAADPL
Put plainly: Selectivity interaction (Methyltransferase screen (radiometric assays, panel of 8 PRMTs, 21 protein lysine methyltransferases, 3 DNA methyltransferases, and one RNA methyltransferase)) EUB0000271b EHMT1.

Assay [7] addresses BDNF/NT-3 growth factors receptor (Homo sapiens) (UniProt Q16620). The assay is described as follows: Selectivity interaction (SelectScreen Kinase Profiling (Thermo Fisher Scientific)) EUB0001558a NTRK2. To be noted: at 1 µM.
Assay [8] has as its target Cyclin-dependent kinase 9 (Homo sapiens, UniProt P50750). The assay is described as follows: Selectivity interaction (KinomeScan (DiscoverX)) EUB0001079a CDK9. To be noted: at 1 µM.

Activin receptor type-2A (Homo sapiens), sequence (P27037 whole entry): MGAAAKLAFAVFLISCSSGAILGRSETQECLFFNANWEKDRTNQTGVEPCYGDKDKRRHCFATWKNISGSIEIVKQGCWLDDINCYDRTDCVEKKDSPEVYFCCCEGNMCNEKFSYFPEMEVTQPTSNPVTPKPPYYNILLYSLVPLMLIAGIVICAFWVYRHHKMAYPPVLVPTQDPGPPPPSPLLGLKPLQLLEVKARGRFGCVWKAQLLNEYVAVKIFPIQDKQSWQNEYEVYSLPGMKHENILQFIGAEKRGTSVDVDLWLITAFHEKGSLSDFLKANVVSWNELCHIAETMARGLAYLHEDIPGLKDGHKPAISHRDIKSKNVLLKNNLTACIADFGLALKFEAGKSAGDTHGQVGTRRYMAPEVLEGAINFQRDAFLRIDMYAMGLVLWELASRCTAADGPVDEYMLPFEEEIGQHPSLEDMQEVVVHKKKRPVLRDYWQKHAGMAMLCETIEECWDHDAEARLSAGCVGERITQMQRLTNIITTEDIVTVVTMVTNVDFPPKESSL
BDNF/NT-3 growth factors receptor (Homo sapiens), sequence (Q16620 32-822 limits assumed): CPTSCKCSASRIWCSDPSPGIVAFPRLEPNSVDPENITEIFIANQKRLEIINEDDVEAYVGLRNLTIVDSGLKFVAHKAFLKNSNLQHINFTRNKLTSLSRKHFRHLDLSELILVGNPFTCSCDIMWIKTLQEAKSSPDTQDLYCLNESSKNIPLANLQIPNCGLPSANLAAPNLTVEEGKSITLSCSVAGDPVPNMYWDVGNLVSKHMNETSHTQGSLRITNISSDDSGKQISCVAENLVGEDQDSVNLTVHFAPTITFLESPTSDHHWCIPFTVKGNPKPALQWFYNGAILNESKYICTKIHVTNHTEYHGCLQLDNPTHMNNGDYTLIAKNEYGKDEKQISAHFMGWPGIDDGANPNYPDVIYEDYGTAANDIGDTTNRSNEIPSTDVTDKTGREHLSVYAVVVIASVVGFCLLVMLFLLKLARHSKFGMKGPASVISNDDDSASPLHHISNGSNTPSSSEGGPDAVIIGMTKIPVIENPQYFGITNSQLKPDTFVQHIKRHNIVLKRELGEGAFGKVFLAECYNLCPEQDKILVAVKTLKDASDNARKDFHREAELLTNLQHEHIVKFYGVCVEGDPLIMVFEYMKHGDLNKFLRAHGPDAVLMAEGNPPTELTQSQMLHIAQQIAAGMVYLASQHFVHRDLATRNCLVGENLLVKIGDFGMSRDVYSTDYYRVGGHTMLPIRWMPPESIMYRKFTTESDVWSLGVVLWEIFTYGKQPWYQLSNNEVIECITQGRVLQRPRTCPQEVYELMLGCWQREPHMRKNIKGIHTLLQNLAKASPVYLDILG
Receptor-interacting serine/threonine-protein kinase 2, sequence (O43353 whole entry): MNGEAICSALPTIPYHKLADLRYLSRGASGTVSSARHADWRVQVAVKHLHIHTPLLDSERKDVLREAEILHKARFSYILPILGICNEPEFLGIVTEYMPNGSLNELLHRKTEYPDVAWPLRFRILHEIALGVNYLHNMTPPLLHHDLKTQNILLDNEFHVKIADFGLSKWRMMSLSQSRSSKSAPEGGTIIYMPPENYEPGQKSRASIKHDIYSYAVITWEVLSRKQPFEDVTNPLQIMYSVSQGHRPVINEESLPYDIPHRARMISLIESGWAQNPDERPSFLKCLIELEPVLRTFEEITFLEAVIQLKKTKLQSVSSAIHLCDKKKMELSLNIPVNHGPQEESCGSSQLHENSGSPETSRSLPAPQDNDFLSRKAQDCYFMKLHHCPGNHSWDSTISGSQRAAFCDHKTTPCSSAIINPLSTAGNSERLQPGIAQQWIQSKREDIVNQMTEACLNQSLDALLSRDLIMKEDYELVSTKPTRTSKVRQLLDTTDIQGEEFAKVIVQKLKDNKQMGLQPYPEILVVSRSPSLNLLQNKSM
Serine/threonine-protein kinase B-raf (Homo sapiens), sequence (P15056 whole entry): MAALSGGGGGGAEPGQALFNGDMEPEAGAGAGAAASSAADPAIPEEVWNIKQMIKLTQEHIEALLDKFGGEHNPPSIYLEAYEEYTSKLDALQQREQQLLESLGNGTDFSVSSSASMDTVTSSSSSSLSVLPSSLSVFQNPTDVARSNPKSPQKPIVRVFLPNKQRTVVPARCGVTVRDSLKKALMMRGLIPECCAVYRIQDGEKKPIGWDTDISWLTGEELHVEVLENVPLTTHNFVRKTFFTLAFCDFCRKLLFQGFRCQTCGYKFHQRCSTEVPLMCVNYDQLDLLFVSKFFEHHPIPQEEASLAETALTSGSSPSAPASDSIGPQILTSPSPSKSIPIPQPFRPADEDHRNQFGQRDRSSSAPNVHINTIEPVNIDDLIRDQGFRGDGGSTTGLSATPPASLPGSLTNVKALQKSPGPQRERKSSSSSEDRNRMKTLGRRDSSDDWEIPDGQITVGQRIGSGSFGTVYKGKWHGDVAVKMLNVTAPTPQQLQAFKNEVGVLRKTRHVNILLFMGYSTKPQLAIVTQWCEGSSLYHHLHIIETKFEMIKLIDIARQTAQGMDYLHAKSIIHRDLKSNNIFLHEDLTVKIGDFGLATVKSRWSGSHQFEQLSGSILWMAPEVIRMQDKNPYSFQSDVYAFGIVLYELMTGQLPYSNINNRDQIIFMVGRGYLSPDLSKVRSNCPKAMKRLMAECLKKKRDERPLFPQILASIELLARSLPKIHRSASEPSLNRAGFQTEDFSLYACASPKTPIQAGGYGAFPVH
Cyclin-dependent kinase 9, sequence (P50750 whole entry): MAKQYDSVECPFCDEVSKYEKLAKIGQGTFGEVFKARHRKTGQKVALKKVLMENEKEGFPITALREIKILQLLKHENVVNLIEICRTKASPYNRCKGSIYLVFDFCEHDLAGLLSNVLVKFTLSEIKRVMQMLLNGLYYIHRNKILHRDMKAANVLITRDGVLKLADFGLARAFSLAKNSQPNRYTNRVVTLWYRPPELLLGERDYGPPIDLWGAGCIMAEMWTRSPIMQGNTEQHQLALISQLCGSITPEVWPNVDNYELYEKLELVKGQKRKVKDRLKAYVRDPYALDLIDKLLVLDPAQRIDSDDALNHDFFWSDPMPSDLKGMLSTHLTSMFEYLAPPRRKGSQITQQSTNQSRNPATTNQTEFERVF

As for `O=C(NOC[C@H](O)CO)c1ccc(F)c(F)c1Nc1ccc(I)cc1F`, the % of control in assay [1] stood at 66%.

As for `CNC(=O)Nc1ccc(-c2nc(N3CC4CCC(C3)O4)c3cnn(C4CCC5(CC4)OCCO5)c3n2)cc1`, the % of inhibition in assay [2] was -16%.

Consider `CC[C@@H]1[C@H](F)C(=O)N[C@@H]1COc1nccc2cc(C(N)=O)c(OC)cc12` [ZIMLOVISERTIB], for which the % of inhibition is 1.9% in assay [3]; 15.1% in assay [4] (at 0.01 µM); -11.7% in assay [4] (at 0.04 µM); -29.6% in assay [4] (at 0.2 µM); -46.2% in assay [4] (at 1 µM); -40.1% in assay [4] (at 5 µM).

Consider `CN(C)CCOc1ccc(-c2nc(-c3ccncc3)c(-c3ccc4c(c3)CC/C4=N\O)[nH]2)cc1`, for which the % of control in assay [5] is 100%.

Take `Cc1cc(C)cc([C@@H]2c3cc(C)ccc3NC(=O)CN2C(=O)c2ccc(Br)s2)c1`: the % of activity in assay [6] (at 1 µM) and in assay [6] (at 10 µM) was 99% in each case.

For the compound `CC(C)(O)[C@H](F)CN1Cc2cc(NC(=O)c3cnn4cccnc34)c(N3CCOCC3)cc2C1=O`, the % of inhibition in assay [7] came out at 86%.

In assay [8], `Nc1cnc(N2CCc3cc(S(=O)(=O)Nc4c(F)cc(Cl)cc4F)cc(N4CCCC4=O)c32)nc1` [TP-020n] came in with a % of control of 100%.
